Test results taken from ChEMBL document CHEMBL3507680, “University of Dundee, Gates Library screen for HepG2 cell viability”.

Assay: Human HepG2 cell viability assay in 384 well format
Type: toxicity, cell-based
Design: dose 125 nL, time 70.5 hour; concentration not given beside the values
Conditions: HepG2 cells, read-out: Inhibition

Compound	cytotoxicity at 70.5 h [%]
Cc1noc(C)c1CN1C[C@@H]2CCCO[C@@H]2[C@H](Nc2ccccn2)C1	-4.07
Cc1nnc(CN(C)C2CCN(CCc3ccccn3)CC2)o1	-4.31
COc1ccc(C)cc1CN(C)CC(N)=O	-7.37
Cc1nn(C)c(N2CCCN(C)CC2)c1CNC(=O)CC1CCCC1	0.191
COCc1cc(N(C)Cc2ncnn2C)nc(C(C)(C)C)n1	-10.6
CNc1cncc(C2CCCN2Cc2cccc(C)n2)n1 (stereo unspecified)	-6.12
COc1ccc2c(c1)C(C(=O)N(C)CCCc1nccn1C)CC(=O)N2 (stereo unspecified)	5.74
CCN1CCC2(CCC1=O)CN(c1ccnc(SC)n1)CCN2C (stereo unspecified)	3.52
CCn1cnc2c(c(Br)nn2C)c1=O	-17.1
N#CCCNC(=O)c1ccn(-c2ccc3ccccn23)n1	-7.72
Cc1ncsc1CNC(=O)N1CCN(Cc2ccccc2)C[C@H]1C	-3.58
Cc1cc(N2CCCN(C(=O)Cc3ccc(O)c(Cl)c3)CC2)ccn1	-4.07
COc1ncccc1CNC1CCc2c(ccc(=O)n2C)C1 (stereo unspecified)	-1.32
O=C(NCc1cnc2n1CCN(CC1CC1)C2)C1CC1	28
Cn1ccnc1C(=O)N1C[C@@H]2CCN(c3cnccn3)C[C@@H]2C1	-7.28
CCC(=O)N1CCC2(COCc3c(C)nc(N(C)C)nc32)C1 (stereo unspecified)	20.3
CCOc1ccc(NC(=O)N(C)Cc2cnn(C)c2)c(C)c1	-5.21
O=C(Nc1ccccc1)c1cc2n(n1)CCCN(C(=O)c1ccc[nH]1)C2	14.9
CCc1ncc(C(=O)N2CCN(c3cnn(C)c(=O)c3)CC2)cn1	-5.02
CCN(Cc1cccc(C(N)=O)c1)c1ccccc1	12.2
Cc1nc(NS(=O)(=O)c2cccc(F)c2C)no1	6.79
Cc1cnc(C)c(N2CCC3(CCCN(C4CCOCC4)C3=O)C2)n1 (stereo unspecified)	-8.78
O=C(c1cnc2n1CCN(Cc1ccccc1)C2)N1CCCC1	-9.37
Cc1nc(C#N)c(N2CCC(c3nc(-c4ccccc4)no3)CC2)o1	-4.24

Compound	cytotoxicity at 70.5 h [%]
O=S1(=O)COCCN1Cc1ccc(F)c(F)c1	-7.08
CNC(=O)Cc1ccccc1NC(=O)C1CCCC1	29.2
CC(C)(C)OC(=O)NCC1CCCCN1Cc1cccc(C(N)=O)c1 (stereo unspecified)	1.21
CC(C)c1cc(C2CCN(C(=O)Cn3cnc4ccccc43)CC2)[nH]n1	4.36
Cc1nc2c(c(N3CCC(O)(CN4CCCC4)CC3)n1)CCN(C)CC2	-3.57
CN(C(=O)c1ccncc1F)c1ccccc1S(C)(=O)=O	-1.8
Cc1nnc(SCCC(=O)N(C)Cc2c(F)cccc2Cl)[nH]1	-3.01
CCn1cc(CN2CCCN(C(=O)CCc3cccs3)CC2)cn1	-12.3
COc1ccc(Cl)cc1C(=O)N(C)Cc1cc(C)on1	-3.26
CC(C)c1ncncc1C(=O)NCCN1CCOCC1	1.2
CCn1ccnc1-c1nccn1-c1ccccc1CN1CCOCC1	-8.91
Cc1ccc(NC2CCN(C(=O)COCC(F)(F)F)CC2)nn1	10.1
CC(NCc1cccc2c1OCCO2)c1cc2c(cc1Br)OCCO2 (stereo unspecified)	-7.55
O=S1(=O)CCC(n2nc(Cc3cccs3)nc2-c2cnccn2)C1 (stereo unspecified)	0.418
CC(C)N1CCC(CNC(=O)CCc2cc(F)ccc2F)C1 (stereo unspecified)	14.8
CCS(=O)(=O)CC(=O)Nc1cc(-c2cccc(F)c2F)n[nH]1	-9.86
N#Cc1ncn(CCS(=O)(=O)c2ccccc2)n1	-16.8
CN1CSC[C@H]1C(=O)N1CCN(Cc2cccc(F)c2)CC1	8.84
Cc1nnc2n1CCN(CC(=O)NC(C)c1cc3ccccc3o1)C2 (stereo unspecified)	2.01
CCCn1nc2c(cc1=O)CN(c1ncnc3ccsc13)CC2	-13
CC(=O)N1CCc2ccccc2C1CC(=O)NCc1nnc(C)o1 (stereo unspecified)	27.7
CC(C(=O)NCc1ccc(N2CCCCC2)nc1)S(C)(=O)=O (stereo unspecified)	-5.42
Cc1ccc(N2CCN(C(=O)CCc3n[nH]c(C)c3C)CC2=O)cc1	-0.118
O=C(NCc1ccccc1)NCc1nc(-c2ccncc2)n[nH]1	-3.14

Compound	cytotoxicity at 70.5 h [%]
COC(=O)CC(c1ccccc1)c1oc(C)cc(=O)c1O (stereo unspecified)	6.19
CCS(=O)(=O)N1CCN(C(=O)c2ccc(Cn3cc(Br)cn3)cc2)CC1	-6.35
COCC(=O)Nc1cnn(COc2ccc(F)cc2Cl)c1	2.16
CC(C)c1cc(N2CCC(NS(C)(=O)=O)C2)nc(C(C)C)n1 (stereo unspecified)	-10.9
Cc1cc(Br)c(O)c(-c2nc(N3CCOCC3)sc2C)c1	5.07
Cc1c(Cn2c(=O)cnc3ccccc32)cnn1C	-14.9
CN(Cc1ncnn1C)c1ccnc(Cc2ccccc2)n1	-2.06
Cc1cc(C(F)(F)F)c2c(C3CCN(S(=O)(=O)N(C)C)CC3)noc2n1	-9.87
O=C1NCCO[C@H]2CN(C(=O)CCc3ccc(Cl)cc3)CC[C@@H]12	-17.3
Cc1nc(CN2CCCC(N(C)CC3CCCC3)C2)no1 (stereo unspecified)	0.0887
CC(C)(C)C(O)CN1CCN(C(=O)c2cccc3[nH]ncc23)CC1 (stereo unspecified)	-3.16
CNc1ccc(CC2CCCN(C(=O)c3cnccn3)C2)nn1 (stereo unspecified)	-14.4
Cn1ccnc1CN1CCN(c2ncnc3ccsc23)CC1	-0.211
O=C(CN1CCCC(Cn2cncn2)C1)Nc1cccnc1 (stereo unspecified)	0.545
COc1ccccc1C(=O)N1CCC(Nc2ccc(C)nn2)CC1	-8.98
Cn1cnnc1SCC(=O)NC1CC(=O)N(CCc2ccccc2)C1 (stereo unspecified)	-8.79
Cc1cccc(CNC(=O)C2CCC(=O)N(Cc3ccccc3F)C2)n1 (stereo unspecified)	-9.23
Cc1noc(C(C)N2CCN(Cc3ccco3)CC2)n1 (stereo unspecified)	-11.9
CCOCCCNc1ncc(-c2onc(C)c2C)c(-c2ccco2)n1	-10.1
COC(=O)C1CCN(C(=O)Cn2nc(C)nc2-c2ccccc2)CC1	-2.98
Cc1nc(N2CCCC2)nc2c1CCN(C(=O)CC1CC1)CC2	-8.4
CC(=O)N1CC[C@H]2OCC[C@@H](C(=O)NCc3ccco3)[C@@H]2C1	26.4
CC(C)(O)CCc1ccc(C(=O)NCCC2CCCOC2)cc1 (stereo unspecified)	-0.926
Cc1cnc(C(=O)N2CCCC(n3cccn3)C2)cn1 (stereo unspecified)	-1.48

Compound	cytotoxicity at 70.5 h [%]
CN1CCCCC(C2CCN(S(=O)(=O)c3cn(C)cn3)CC2)C1=O (stereo unspecified)	0.674
CCn1ccnc1CN1CCCN(C(=O)C2(C#N)CCCCC2)CC1	-3.94
Cn1c(CN2CCOCC2)cc(=O)c(O)c1CN1CCOCC1	-12.3
O=C1CC2(CCCNC2)C(=O)N1Cc1ccc(Cl)cc1 (stereo unspecified)	-15.9
Cc1cc(S(=O)(=O)NCC(O)c2sccc2C)ccc1F (stereo unspecified)	-1.45
C[C@H]1CN2C[C@H](O)CC2CN1Cc1ccncc1 (stereo partly specified)	-1.34
CNC(=O)CCS(=O)(=O)Cc1nnnn1-c1ccccc1	-3.85
COCCNC(=O)C1CCCN1S(=O)(=O)c1sc(=O)[nH]c1C (stereo unspecified)	-6.44
Nc1ccnc(C(=O)N2CCCC3(CCC(=O)N(C4CCCC4)C3)C2)c1 (stereo unspecified)	-7.4
c1cnc(-c2nc(CN3CCOC(Cn4cncn4)C3)cs2)nc1 (stereo unspecified)	11.7
FC(F)CN1CCOC(Cn2cccn2)C1 (stereo unspecified)	-3.37
COc1c(C2CCCN2C(=O)c2ccoc2C)c(C)nn1C (stereo unspecified)	7.26
COc1ccc2c3c1CN(C(=O)N(C)C)CC3=CC(C)(C)CO2	-6.85
C1CCC(CSc2nnnn2C2CC2)OC1 (stereo unspecified)	-0.703
CCSc1cncc(N2CCC(C(=O)Nc3ccccn3)CC2)n1	-3.08
CCS(=O)(=O)NCC(=O)N1CC2(CCCC2)c2c(F)cccc21	-1.86
Cc1cc(C(=O)N2CCCC3(COCCN(c4ccccc4)C3)C2)[nH]n1 (stereo unspecified)	-10.7
Cc1ccc(CCNC(=O)NCCCC(N)=O)c(C)c1	1.66
CN(Cc1nc(C2CC2)no1)C1CCCN(c2cccnn2)C1 (stereo unspecified)	-19.7
CCN1CCN(C(=O)c2cc(-c3cccs3)cs2)CC1	15.8
Cc1cc(C)n(CC(=O)N(C)Cc2csc(-c3cccs3)n2)c(=O)n1	6.7
CC(C)Cc1cc(NC(=O)c2ccncc2)n(C)n1	-11.6
CCc1n[nH]c(C2CN(C(=O)c3ccsc3)CCO2)n1 (stereo unspecified)	-9.96
NC(=O)CN1CC(O)c2ccccc2S1(=O)=O (stereo unspecified)	-9.19

Compound	cytotoxicity at 70.5 h [%]
Cc1cc(NC(=O)NCc2nccn2C)ccc1OC(C)C	-6.18
C=C(C)CNCC1(O)CCCN(Cc2ccc(F)c(F)c2)C1=O (stereo unspecified)	-1.61
CC(C)c1ccc(NC(=O)c2ncc(C(N)=O)cc2Cl)cc1	-86.1
CN(C)C(=O)NCC(=O)N1CCCC2(CCC(=O)N(CC3CC3)C2)C1 (stereo unspecified)	-13.6
COc1ccc(N2CCN(Cc3nc(CSC)no3)CC2=O)cc1	4.47
CCS(=O)(=O)N1CCc2c(cccc2NCc2nc(C)c(C)o2)C1	19.1
O=C(NCCN1CCOCC1)c1nc2ccccc2c(=O)[nH]1	-23.1
CCn1cc(CNc2ccc(Br)c(OC)c2)cn1	4.22
CCN(CC)c1ncc(CNC2CCc3nc(C)nn3C2)s1 (stereo unspecified)	4.79
Cc1cc(C)n(CC2CN(Cc3cccc(C#N)c3)CCO2)n1 (stereo unspecified)	-3.79
Cc1ccc2nc(NCCN3CCOCC3)n(C)c(=O)c2c1	0.444
Cn1ccnc1CN(CCO)C(=O)c1cc2ccccc2o1	9.95
O=C(C[C@@H]1COC[C@H]2CN(Cc3ccccc3)C[C@@H]12)N1CCCC1	-14.4
CC(C)N(C)CC(=O)NC1CCc2nccn2C1 (stereo unspecified)	17.3
CCN1CCC(CC(=O)NCc2nc(C)cc(C)n2)CC1	-3.98
Fc1cccc(Oc2nccnc2C2CCN(C3CCOCC3)CC2)c1	0.625
CNC(=O)Cn1nc(C(C)C)c2cnn(C(C)(C)C)c2c1=O	25.5
N#Cc1cccc(NC(=O)N[C@H](CO)c2ccccc2)c1	-10.8
CC(=O)c1ccc(-n2ccc3nc(N4CCCC4)ncc3c2=O)cc1	-5.08
O=C(N[C@H]1CN(Cc2ccsc2)[C@@H]2CCCO[C@H]12)C1CC1	-11.3
